Assay results taken from ChEMBL document CHEMBL1909046, “DrugMatrix in vitro pharmacology data”.

Columns and labels:
[1] = molecular target: T1, C-X-C chemokine receptor type 2 (Homo sapiens, UniProt P25025); format: cell membranes, Membrane; details: cho-k1; further: in other assays of this panel Not Active means under 50% inhibition at 10 µM
T1 sequence (P25025 whole entry): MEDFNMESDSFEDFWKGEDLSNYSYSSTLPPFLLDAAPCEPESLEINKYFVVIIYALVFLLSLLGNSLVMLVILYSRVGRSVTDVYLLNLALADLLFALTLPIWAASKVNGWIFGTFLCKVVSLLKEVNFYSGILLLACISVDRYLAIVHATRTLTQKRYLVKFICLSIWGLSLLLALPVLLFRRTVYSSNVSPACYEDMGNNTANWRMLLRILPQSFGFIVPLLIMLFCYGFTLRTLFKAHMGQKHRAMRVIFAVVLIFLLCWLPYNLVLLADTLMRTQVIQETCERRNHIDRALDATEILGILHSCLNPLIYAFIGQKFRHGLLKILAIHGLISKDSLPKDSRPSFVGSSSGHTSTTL

[2] = DRUGMATRIX: Leukotriene, BLT (LTB4) radioligand binding (ligand: [3H]LTB4); format: cell membranes, Membrane; details: u-937; Not Active = under 50% inhibition at 10 µM
[3] = molecular target: T2, Cysteinyl leukotriene receptor 1 (Homo sapiens, UniProt Q9Y271); format: cell membranes, CHO-K1, Membrane; details: cho-k1; further: in other assays of this panel Not Active means under 50% inhibition at 10 µM
T2 sequence (Q9Y271 whole entry): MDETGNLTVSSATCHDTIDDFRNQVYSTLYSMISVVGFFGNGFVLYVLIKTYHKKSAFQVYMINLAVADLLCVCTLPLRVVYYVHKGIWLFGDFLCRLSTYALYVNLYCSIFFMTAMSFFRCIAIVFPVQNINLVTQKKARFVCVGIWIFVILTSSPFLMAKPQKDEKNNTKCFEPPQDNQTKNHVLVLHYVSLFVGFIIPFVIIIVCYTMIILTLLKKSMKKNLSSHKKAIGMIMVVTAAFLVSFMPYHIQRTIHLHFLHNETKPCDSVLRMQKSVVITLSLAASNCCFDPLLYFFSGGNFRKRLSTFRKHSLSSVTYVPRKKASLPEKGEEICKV

[4] = DRUGMATRIX: Phosphodiesterase PDE4 enzyme inhibition (substrate: [3H]cAMP + cAMP); details: u-937; Not Active = under 50% inhibition at 10 µM
Interstitial collagenase = molecular target: T3, Interstitial collagenase (Homo sapiens, UniProt P03956); assay: biochemical; format: tissue-based, Rheumatoid synovial fibroblasts;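 further: MMP-1 enzyme inhibition assay using a peptide substrate; in other assays of this panel Not Active means under 50% inhibition at 10 µM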
T3 sequence (P03956 whole entry): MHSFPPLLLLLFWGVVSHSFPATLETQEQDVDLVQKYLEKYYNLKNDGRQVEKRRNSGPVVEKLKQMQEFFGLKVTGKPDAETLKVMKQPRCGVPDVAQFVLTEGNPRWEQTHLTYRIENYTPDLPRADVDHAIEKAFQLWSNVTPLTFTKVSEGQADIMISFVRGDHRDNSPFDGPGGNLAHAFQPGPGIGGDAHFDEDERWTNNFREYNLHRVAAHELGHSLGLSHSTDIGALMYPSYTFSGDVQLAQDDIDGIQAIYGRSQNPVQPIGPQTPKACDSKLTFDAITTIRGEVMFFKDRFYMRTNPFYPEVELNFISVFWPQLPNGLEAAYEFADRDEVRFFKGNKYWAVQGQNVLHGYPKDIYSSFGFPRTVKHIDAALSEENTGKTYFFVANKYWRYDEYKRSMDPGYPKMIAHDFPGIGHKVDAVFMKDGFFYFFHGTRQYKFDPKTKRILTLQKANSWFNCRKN

[5] = molecular target: Tyrosine-protein kinase Fyn (Homo sapiens, UniProt P06241); assay: biochemical; format: cell-based, Insect cells; details: insect cells;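 further: enzymatic inhibition of Fyn kinase activity measured with Poly(Glu:Tyr) as the phosphorylation substrate; in other assays of this panel Not Active means under 50% inhibition at 10 µM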
Cytochrome P450 2C19 = Cytochrome P450 2C19 (Homo sapiens, UniProt P33261); details: bti-tn-5b1-4; further: in other assays of this panel Not Active means under 50% inhibition at 10 µM
Sequence of Cytochrome P450 2C19 (P33261 whole entry): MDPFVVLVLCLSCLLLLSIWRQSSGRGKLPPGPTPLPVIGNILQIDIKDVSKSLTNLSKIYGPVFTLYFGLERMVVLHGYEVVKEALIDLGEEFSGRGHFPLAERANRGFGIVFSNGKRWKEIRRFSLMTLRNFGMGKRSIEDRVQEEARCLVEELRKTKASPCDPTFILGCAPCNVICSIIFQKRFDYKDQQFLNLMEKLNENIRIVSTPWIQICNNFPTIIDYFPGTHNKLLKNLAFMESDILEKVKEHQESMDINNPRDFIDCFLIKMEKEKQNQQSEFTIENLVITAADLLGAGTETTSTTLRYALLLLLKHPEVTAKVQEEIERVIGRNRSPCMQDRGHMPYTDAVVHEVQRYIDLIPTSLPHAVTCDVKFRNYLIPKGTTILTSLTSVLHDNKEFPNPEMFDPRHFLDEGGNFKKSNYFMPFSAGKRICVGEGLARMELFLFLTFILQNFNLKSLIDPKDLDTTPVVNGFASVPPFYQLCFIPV

Sequence of Tyrosine-protein kinase Fyn (P06241 whole entry): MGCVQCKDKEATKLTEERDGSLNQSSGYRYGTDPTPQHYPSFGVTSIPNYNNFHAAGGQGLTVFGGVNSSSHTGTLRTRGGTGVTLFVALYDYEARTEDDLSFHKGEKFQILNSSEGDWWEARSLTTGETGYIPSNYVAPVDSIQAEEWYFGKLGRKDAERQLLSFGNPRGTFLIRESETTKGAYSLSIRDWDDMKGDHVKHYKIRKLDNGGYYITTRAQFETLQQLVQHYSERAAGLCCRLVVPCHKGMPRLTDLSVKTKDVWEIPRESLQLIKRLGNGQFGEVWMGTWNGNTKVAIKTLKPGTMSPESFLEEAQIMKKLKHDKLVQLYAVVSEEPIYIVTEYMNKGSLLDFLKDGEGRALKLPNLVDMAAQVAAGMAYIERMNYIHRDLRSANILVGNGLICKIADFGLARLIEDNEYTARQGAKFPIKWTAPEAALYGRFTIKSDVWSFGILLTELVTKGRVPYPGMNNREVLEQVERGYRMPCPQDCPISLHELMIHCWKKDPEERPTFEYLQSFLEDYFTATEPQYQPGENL

COc1ccccc1C(=O)N1CCC(Cc2ccccc2)CC1
Not Active: IC50 [1] | IC50 [2] | Ki [2] | IC50 [3] | IC50 [4] | Ki [4] | IC50 (Interstitial collagenase) | IC50 [5]

Cc1ccccc1C(=O)N1CCC(Cc2ccccc2)CC1
Not Active: IC50 [1] | IC50 [2] | Ki [2] | IC50 [3] | IC50 [4] | Ki [4] | IC50 (Interstitial collagenase) | IC50 [5]

N=C(Nc1ccccc1)Nc1ccccc1
Not Active: IC50 [1] | IC50 [2] | Ki [2] | IC50 [3] | IC50 [4] | Ki [4] | IC50 (Interstitial collagenase) | IC50 [5] | IC50 (Cytochrome P450 2C19) | Ki (Cytochrome P450 2C19)

C[C@](O)(CS(=O)(=O)c1ccc(F)cc1)C(=O)Nc1ccc(C#N)c(C(F)(F)F)c1 [(R)-BICALUTAMIDE]
Not Active: IC50 [1] | IC50 [2] | Ki [2] | IC50 [3] | IC50 [4] | Ki [4] | IC50 (Interstitial collagenase) | IC50 [5]

O=NN(CCCl)C(=O)NCCCl [CARMUSTINE]
Not Active: IC50 [1] | IC50 [2] | Ki [2] | IC50 [3] | IC50 [4] | Ki [4] | IC50 (Interstitial collagenase) | IC50 [5]

CC1=C(C(=O)O)N2C(=O)[C@@H](NC(=O)[C@H](N)c3ccccc3)[C@H]2SC1 [CEPHALEXIN ANHYDROUS]
Not Active: IC50 [1] | IC50 [2] | Ki [2] | IC50 [3] | IC50 [4] | Ki [4] | IC50 (Interstitial collagenase) | IC50 [5]

O=C(N[C@H](CO)[C@H](O)c1ccc([N+](=O)[O-])cc1)C(Cl)Cl [CHLORAMPHENICOL]
Not Active: IC50 [1] | IC50 [2] | Ki [2] | IC50 [3] | IC50 [4] | Ki [4] | IC50 (Interstitial collagenase) | IC50 [5]

CCOC(=O)C(C)(C)Oc1ccc(Cl)cc1 [CLOFIBRATE]
Not Active: IC50 [1] | IC50 [2] | Ki [2] | IC50 [3] | IC50 [4] | Ki [4] | IC50 (Interstitial collagenase) | IC50 [5]

C[C@@H]1C[C@@H]([C@H](O)CC2CC(=O)NC(=O)C2)C(=O)[C@@H](C)C1 [CYCLOHEXIMIDE]
Not Active: IC50 [1] | IC50 [2] | Ki [2] | IC50 [3] | IC50 [4] | Ki [4] | IC50 (Interstitial collagenase) | IC50 [5]

C/C=C/C[C@@H](C)[C@@H](O)[C@H]1C(=O)N[C@@H](CC)C(=O)N(C)CC(=O)N(C)[C@@H](CC(C)C)C(=O)N[C@@H](C(C)C)C(=O)N(C)[C@@H](CC(C)C)C(=O)N[C@@H](C)C(=O)N[C@H](C)C(=O)N(C)[C@@H](CC(C)C)C(=O)N(C)[C@@H](CC(C)C)C(=O)N(C)[C@@H](C(C)C)C(=O)N1C [CYCLOSPORINE]
Not Active: IC50 [1] | IC50 [2] | Ki [2] | IC50 [3] | IC50 [4] | Ki [4] | IC50 (Interstitial collagenase) | IC50 [5]

NC(=O)NO [HYDROXYUREA]
Not Active: IC50 [1] | IC50 [2] | Ki [2] | IC50 [3] | IC50 [4] | Ki [4] | IC50 (Interstitial collagenase) | IC50 [5]

COc1ccc2cc([C@H](C)C(=O)O)ccc2c1 [NAPROXEN]
Not Active: IC50 [1] | IC50 [2] | Ki [2] | IC50 [3] | IC50 (Interstitial collagenase) | IC50 [5]

CCN[C@@H]1C[C@H](N)[C@@H](O[C@H]2OC(CN)=CC[C@H]2N)[C@H](O)[C@H]1O[C@H]1OC[C@](C)(O)[C@H](NC)[C@H]1O [NETILMICIN]
Not Active: IC50 [1] | IC50 [2] | Ki [2] | IC50 [3] | IC50 [4] | Ki [4] | IC50 (Interstitial collagenase) | IC50 [5]

COC(=O)C1=C(C)NC(C)=C(C(=O)OCC(C)C)C1c1ccccc1[N+](=O)[O-] (centres undefined) [NISOLDIPINE]
Not Active: IC50 [1] | IC50 [2] | Ki [2] | IC50 [3] | IC50 [4] | Ki [4] | IC50 (Interstitial collagenase) | IC50 [5]

CCOC(=O)C1=C(C)NC(C)=C(C(=O)OC)C1c1cccc([N+](=O)[O-])c1 (centres undefined) [NITRENDIPINE]
Not Active: IC50 [1] | IC50 [2] | Ki [2] | IC50 [3] | IC50 [4] | Ki [4] | IC50 (Interstitial collagenase) | IC50 [5]

C#C[C@]1(OC(C)=O)CC[C@H]2[C@@H]3CCC4=CC(=O)CC[C@@H]4[C@H]3CC[C@@]21C [NORETHINDRONE ACETATE]
Not Active: IC50 [1] | IC50 [2] | Ki [2] | IC50 [3] | IC50 [4] | Ki [4] | IC50 (Interstitial collagenase) | IC50 [5]

CCn1cc(C(=O)O)c(=O)c2cc(F)c(N3CCN(C)CC3)cc21 [PEFLOXACIN]
Not Active: IC50 [1] | IC50 [2] | Ki [2] | IC50 [3] | IC50 [4] | Ki [4] | IC50 (Interstitial collagenase) | IC50 [5]

CCCCOc1ccc(OCCCN2CCOCC2)cc1 [PRAMOXINE]
Not Active: IC50 [1] | IC50 [2] | Ki [2] | IC50 [3] | IC50 [4] | Ki [4] | IC50 (Interstitial collagenase) | IC50 [5]
